The results in this text go back to publication PMC11831560, “Development of the Pyrido[2,3-d]pyrimidin-7(8H)-one Scaffold toward Potent and Selective NUAK1 Inhibitors” (ACS Medicinal Chemistry Letters, 2025).

One assay concerns the target T1, NUAK2 (Homo sapiens, UniProt Q9H093).
T1 construct: purchased MRC PPU
T1 sequence (Q9H093 1-628): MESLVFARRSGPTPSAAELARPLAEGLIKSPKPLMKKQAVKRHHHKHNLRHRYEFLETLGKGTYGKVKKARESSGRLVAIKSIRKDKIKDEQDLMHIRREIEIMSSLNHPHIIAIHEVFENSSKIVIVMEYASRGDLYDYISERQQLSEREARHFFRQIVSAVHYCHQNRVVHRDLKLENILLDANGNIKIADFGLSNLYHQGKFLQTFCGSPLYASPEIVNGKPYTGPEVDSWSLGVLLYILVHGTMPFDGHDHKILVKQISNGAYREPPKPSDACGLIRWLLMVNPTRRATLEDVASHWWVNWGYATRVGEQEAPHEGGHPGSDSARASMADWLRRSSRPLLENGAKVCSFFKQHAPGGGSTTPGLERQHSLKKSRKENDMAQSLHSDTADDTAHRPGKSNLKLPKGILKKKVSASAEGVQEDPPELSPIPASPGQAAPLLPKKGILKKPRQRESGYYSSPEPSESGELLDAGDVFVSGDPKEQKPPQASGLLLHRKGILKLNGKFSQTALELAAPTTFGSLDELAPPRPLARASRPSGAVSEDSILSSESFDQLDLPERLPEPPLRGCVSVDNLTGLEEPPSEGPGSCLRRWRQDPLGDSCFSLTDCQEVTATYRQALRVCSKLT
As to the kind of experiment: ADP-Glo biochemical assay NUAK2. To be noted: for NUAK2 pIC50 / IC50: ADP-Glo assay; for IC50: read-out: NUAK2 pIC50 (converted). How it is done: Biological experimental procedures
ADP-Glo biochemical assays
Protein kinase activity in the presence of inhibitor compounds was determined by ADP-Glo assay (Promega), as previously described.1,2 Compounds were serialised using a Labcyte Echo 520 and transferred to 384 well plates (Greiner 784201) followed by the addition 5 µL of substrate containing peptide and ATP at Km in buffer (see Table S6). 5 µL of purified protein was added and the plate was incubated for 60 minutes at room temperature (ng/well; see Table S6). 3 µL of assay mixture was transferred using an Integra Viaflo384 into a white low volume plate (Greiner 781904) prior to the addition of 3 µL of ADP-Glo Reagent™ for a further 40 minute incubation. After incubation with 6 µL of Kinase Detection Reagent for 30 minutes, plate luminescence was read (Pherastar FSX, BMG […]
30 mM HEPES pH7.4, 3 mM MgCl2, 3 mM MnCl2, 1.2 mM DTT, 0.01% CHAPS
Table S6: Conditions for protein kinase ADP-Glo assays
ATP AT Peptide Peptide Enzyme Enzyme Assay Buffe Min.
Protein conc. P Peptide name conc. supplier amount supplier vol. r na […]
NUAK1 µM µM Sakamototide 50 µM Merck 6.7 ng PPU 10 µl A 6
A µM µM Sakamototide 100 µM Merck 1 ng PPU 10 µl B 2 […]
aMin. n: Minimum number of technical replicates per compound

Another assay addresses T2, NUAK1 (Homo sapiens, UniProt O60285).
T2 sequence (O60285 1-661): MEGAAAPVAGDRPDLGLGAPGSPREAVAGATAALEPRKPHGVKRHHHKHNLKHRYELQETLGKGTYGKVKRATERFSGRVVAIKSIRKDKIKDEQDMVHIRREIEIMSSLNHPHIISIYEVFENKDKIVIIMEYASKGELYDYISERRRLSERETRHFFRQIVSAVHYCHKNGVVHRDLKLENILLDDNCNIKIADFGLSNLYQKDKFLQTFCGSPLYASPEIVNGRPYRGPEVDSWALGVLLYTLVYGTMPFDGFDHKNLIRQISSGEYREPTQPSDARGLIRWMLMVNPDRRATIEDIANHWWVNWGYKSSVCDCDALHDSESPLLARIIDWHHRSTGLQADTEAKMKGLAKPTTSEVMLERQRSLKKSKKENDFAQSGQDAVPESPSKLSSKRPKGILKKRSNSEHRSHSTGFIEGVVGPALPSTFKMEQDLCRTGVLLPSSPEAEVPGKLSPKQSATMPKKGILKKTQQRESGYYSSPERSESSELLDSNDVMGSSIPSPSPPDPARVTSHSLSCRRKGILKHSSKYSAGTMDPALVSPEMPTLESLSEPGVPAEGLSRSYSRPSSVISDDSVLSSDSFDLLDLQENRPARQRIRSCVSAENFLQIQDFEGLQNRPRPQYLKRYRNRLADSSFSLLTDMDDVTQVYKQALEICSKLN
As to the kind of experiment: NanoBRET target engagement assay, HEK293 cells. To be noted: cell-based NanoBRET target engagement assay. The protocol: NanoBRET® target engagement assay
The binding of compounds to NUAK1 in intact cells was assessed using an NanoBRET® TE Intracellular Kinase Assay (Promega N2501). HEK293 cells transiently transfected with NanoLuc®- NUAK1 Fusion Vector (Promega NV1831) were incubated with 10 nL K5 tracer (provided in the kit, Promega N2501) and 40 nL of the test compounds in 100% DMSO in a white low volume non-binding 384 assay plate (Grenier Bio One 784904) for 90 min at 37 °C. After incubation, followed by cooling for 15 min at room temperature, 4 µL of the Intracellular TE Nano-Glo ® Substrate/Inhibitor (Promega N2160) was added to each well. The plate was read using a Pherastar FSX plate reader (BMG Labtech).
Minimum number of 2 technical replicates per compound.
Activity pIC50 values and standard error of the mean (SEM) were estimated using a 4-parameter fit (Dotmatics). The SEM for all reported data was 0.2 or lower. See Experimental Procedures for minimum number of replicates per compound. Each experiment included a Standard compound whose pIC50 value was compared to a quality control chart. If the Standard pIC50 value fell outside the range of pIC50 +/-3 standard deviation, then the experiment was invalidated. […]
In general terms: In BRET a luciferase serves as donor, and the signal depends on an acceptor being close.

The next assay addresses CDK2-Cyclin A (Homo sapiens, UniProt P24941). Put plainly: Z′-LYTE screening assay (Thermo Fisher). Type of assay: biochemical. Set-up: purchased Thermo Fisher Scientific. The following applies: single point at 1 μM; read-out: CDK2 % Inh. From the text:
Activity pIC50 values and standard error of the mean (SEM) were estimated using a 4-parameter fit (Dotmatics). The SEM for all reported data was 0.2 or lower. See Experimental Procedures for minimum number of replicates per compound. Each experiment included a Standard compound whose pIC50 value was compared to a quality control chart. If the Standard pIC50 value fell outside the range of pIC50 +/-3 standard deviation, then the experiment was invalidated.
CDK2/cyclin A: Z′-LYTE™ screening assay performed by Thermo Fisher Scientific: The 2X CDK2/cyclin A / Ser/Thr 12 mixture is prepared in 50 mM HEPES pH 7.5, 0.01% BRIJ-35, 10 mM MgCl2, 1 mM EGTA. The final 10 µL Kinase Reaction consists of 1.22 - 10.3 ng CDK2/cyclin A and 2 µM Ser/Thr 12 in 50 mM HEPES pH 7.5, 0.01% BRIJ-35, 10 mM MgCl2, 1 mM EGTA. After the 1 hour Kinase Reaction incubation, 5 µL of a 1:4096 dilution of Development Reagent A is added. […]

“And” between values parts separate entries of the source, which are not always exact repeats. Identical values can stand only once.

`CN1CCN(c2ccc(Nc3ncc4cc(C#N)c(=O)n(C5CCCC5)c4n3)cc2)CC1` [Compound 3, Narazaciclib, reference compound]: at NUAK2, the “NUAK2 pIC50” value is reported as 8.3 and the IC50 is 5.62 nM.
Regarding `CN1C2CC1CN(c1ccc(Nc3ncc4ccn(CC5CCCO5)c4n3)cc1)C2` (stereo not drawn) [Compound 28], the “NUAK1 cell TE pIC50” value on NUAK1 is 6.7. Further, at NUAK2, the IC50 is 53.7 nM and the “NUAK2 Fold selectivity IC50/NUAK1 IC50” value amounted to 10 fold.
With `CN1C2CC1CN(c1ccc(Nc3ncc4ccn(CC5CCOCC5)c4n3)cc1)C2` [Compound 24], on NUAK1, the “NUAK1 cell TE pIC50” value turned out to be 7.0. Moreover, on NUAK2, the “NUAK2 pIC50” value was found to be 7.6, the IC50 is 26.9 nM and the “NUAK2 Fold selectivity IC50/NUAK1 IC50” value is listed as 9 fold. Further, at CDK2-Cyclin A, the inhibition at 1 µM came to 29%.
For `CC(C)N1CCN(c2ccc(Nc3ncc4ccn(C5CCCC5)c4n3)cc2)CC1` [Compound 8], in that order: 6.8, 7.4, 43.7 nM, 10 fold and 84%.
For the compound `CC(C)N1CCN(c2ccc(Nc3ncc4ccn(CC5CCCO5)c4n3)cc2)CC1` (stereo not drawn) [Compound 27], the “NUAK1 cell TE pIC50” value at NUAK1 is reported as 6.9. Also, at NUAK2, the IC50 is 12.3 nM and the “NUAK2 Fold selectivity IC50/NUAK1 IC50” value is listed as 4 fold.
For `Cc1cc(=O)n(C2CCCC2)c2nc(Nc3ccc(N4CCN(C)CC4)cc3)ncc12` [Compound 4], the “NUAK1 cell TE pIC50” value at NUAK1 is 6.9. For the same compound, on NUAK2, the “NUAK2 pIC50” value came out at 7.6, the IC50 is 28.2 nM and the “NUAK2 Fold selectivity IC50/NUAK1 IC50” value worked out at 6 fold. Further, the inhibition at 1 µM on CDK2-Cyclin A was 57%.
On to `CC(C)N1CCN(c2ccc(Nc3ncc4c(n3)N(C3CCCC3)C(=O)C4)cc2)CC1` [Compound 7], for which, on NUAK1, the “NUAK1 cell TE pIC50” value is 6.6. In addition, on NUAK2, the “NUAK2 pIC50” value worked out at 6.9, the IC50 is 141 nM and the “NUAK2 Fold selectivity IC50/NUAK1 IC50” value worked out at 34 fold. For the same compound, the inhibition at 1 µM on CDK2-Cyclin A was 32%.
Consider `Cc1cc(=O)n(C2CCCC2)c2nc(Nc3ccc(N4CC5CC(C4)N5C)cc3)ncc12` [Compound 9], for which the “NUAK1 cell TE pIC50” value at NUAK1 is given as 6.5. Besides, on NUAK2, the “NUAK2 pIC50” value is 7.8, the IC50 was 14.8 nM and the “NUAK2 Fold selectivity IC50/NUAK1 IC50” value was 3 fold. Moreover, the inhibition at 1 µM on CDK2-Cyclin A amounted to 38%.
On to `CC(C)N1CCN(c2ccc(Nc3ncc4ccn(CC5CCOC(C)(C)C5)c4n3)cc2)CC1` (stereo not drawn) [Compound 26], for which the “NUAK1 cell TE pIC50” value at NUAK1 came to 6.8. Moreover, on NUAK2, the IC50 was 38.9 nM and the “NUAK2 Fold selectivity IC50/NUAK1 IC50” value came to 14 fold.
Consider `CN1C2CC1CN(c1ccc(Nc3ncc4cc(C#N)c(=O)n(C5CCCC5)c4n3)cc1)C2` [Compound 10], for which, at NUAK1, the “NUAK1 cell TE pIC50” value turned out to be 6.2. Moreover, at NUAK2, the “NUAK2 pIC50” value is 7.01 and 7.0; the “NUAK2 Fold selectivity IC50/NUAK1 IC50” value was determined as 7 fold. Besides, the inhibition at 1 µM at CDK2-Cyclin A turned out to be 94%.
As to `Cc1cc(=O)n(C(C)C)c2nc(Nc3ccc(N4CC5CC(C4)N5C)cc3)ncc12` [Compound 20], the “NUAK1 cell TE pIC50” value at NUAK1 is 6.0. Moreover, on NUAK2, the “NUAK2 pIC50” value is 7.2, the IC50 is 69.2 nM and the “NUAK2 Fold selectivity IC50/NUAK1 IC50” value stood at 3 fold. Further, the inhibition at 1 µM at CDK2-Cyclin A was 17%.
